Assay results from ChEMBL document CHEMBL1201862, “PubChem BioAssay data set” (2004).
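Five concentrations, 48 hours, 96-well plates. Here, GI50 denotes the concentration required for 50% inhibition of growth.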 The source made the active and inactive calls. No stated cut-off is given here; in the data, active = GI50 up to about 1.1 µM and inactive = higher.

Columns and labels:
Experiment in all cases: DTP human tumour cell line panel, 48 h
OVCAR-3 = system: OVCAR-3
UO-31 = system: UO-31
ACHN = system: ACHN
NCI-H522 = system: NCI-H522
HT-29 = system: HT-29
OVCAR-4 = system: OVCAR-4
OVCAR-8 = system: OVCAR-8
SNB-19 = system: SNB-19
SW-620 = system: SW-620
786-0 = system: 786-0
RPMI-8226 = system: RPMI-8226
NCI-H226 = system: NCI-H226
SK-OV-3 = system: SK-OV-3
HL-60 = system: HL-60
SN12C = system: SN12C
CAKI-1 = system: CAKI-1
CCRF-CEM = system: CCRF-CEM
SK-MEL-2 = system: SK-MEL-2
HCC 2998 = system: HCC 2998
HCT-15 = system: HCT-15

For `Cc1cc2c(cc1-c1cc3c(cc1C)C(C(C)C)=C(O)C(=O)/C3=C\Nc1cccc3c(N)cccc13)/C(=C/Nc1cccc3c(N)cccc13)C(=O)C(O)=C2C(C)C`, the GI50 (OVCAR-3) was > 100 µM (inactive), the GI50 (UO-31) was 30.8 µM (inactive) and the GI50 (ACHN) was > 100 µM (inactive). The GI50 (NCI-H522) was > 100 µM (inactive), the GI50 (HT-29) was > 100 µM (inactive) and the GI50 (OVCAR-4) was > 100 µM (inactive). The GI50 (OVCAR-8) was > 100 µM (inactive), the GI50 (SNB-19) was > 100 µM (inactive) and the GI50 (SW-620) was > 100 µM (inactive). The GI50 (786-0) was > 100 µM (inactive), the GI50 (RPMI-8226) was > 100 µM (inactive) and the GI50 (NCI-H226) was > 100 µM (inactive). The GI50 (SK-OV-3) was > 100 µM (inactive), the GI50 (HL-60) was 33.8 µM (inactive) and the GI50 (SN12C) was > 100 µM (inactive). The GI50 (CAKI-1) was > 100 µM (inactive), the GI50 (CCRF-CEM) was 39.2 µM (inactive) and the GI50 (SK-MEL-2) was > 100 µM (inactive). For the same compound, the GI50 (HCC 2998) was > 100 µM (inactive) and the GI50 (HCT-15) was > 100 µM.

For `CC1=NN(c2nc(N)nc(NS(=O)(=O)c3cc(C)c(Cl)cc3S)n2)C(C)(C)C1`, the GI50 (OVCAR-3) was > 10 µM (inactive), the GI50 (UO-31) was > 10 µM (inactive) and the GI50 (ACHN) was > 10 µM (inactive). The GI50 (NCI-H522) was > 10 µM (inactive), the GI50 (HT-29) was > 10 µM (inactive) and the GI50 (OVCAR-4) was > 10 µM (inactive). For the same compound, the GI50 (OVCAR-8) was > 10 µM (inactive), the GI50 (SNB-19) was > 10 µM (inactive) and the GI50 (SW-620) was > 10 µM (inactive). The GI50 (786-0) was > 10 µM (inactive), the GI50 (RPMI-8226) was > 10 µM (inactive) and the GI50 (NCI-H226) was > 10 µM (inactive). For the same compound, the GI50 (SK-OV-3) was > 10 µM (inactive), the GI50 (HL-60) was > 10 µM (inactive) and the GI50 (SN12C) was > 10 µM (inactive). The GI50 (CAKI-1) was > 10 µM (inactive), the GI50 (CCRF-CEM) was > 10 µM (inactive) and the GI50 (SK-MEL-2) was > 10 µM (inactive). The GI50 (HCC 2998) was > 10 µM (inactive) and the GI50 (HCT-15) was > 10 µM.

With `Cc1nn2c(=O)c([N+](=O)[O-])c(/C=C/c3ccco3)nc2s1` the GI50 (OVCAR-3) was 38.8 µM (inactive), the GI50 (UO-31) was 58.7 µM (inactive) and the GI50 (ACHN) was 60.5 µM (inactive). For the same compound, the GI50 (NCI-H522) was 60.5 µM (inactive), the GI50 (HT-29) was 56.1 µM (inactive) and the GI50 (OVCAR-4) was > 100 µM (inactive). For the same compound, the GI50 (OVCAR-8) was 32.7 µM (inactive), the GI50 (SNB-19) was 59 µM (inactive) and the GI50 (SW-620) was 48.2 µM (inactive). For the same compound, the GI50 (786-0) was 76 µM (inactive), the GI50 (RPMI-8226) was 36.7 µM (inactive) and the GI50 (NCI-H226) was 77.3 µM (inactive). For the same compound, the GI50 (SK-OV-3) was 43.6 µM (inactive), the GI50 (HL-60) was 30.8 µM (inactive) and the GI50 (SN12C) was 64.9 µM (inactive). For the same compound, the GI50 (CAKI-1) was 52.6 µM (inactive), the GI50 (CCRF-CEM) was 31.7 µM (inactive) and the GI50 (SK-MEL-2) was 57 µM (inactive). The GI50 (HCC 2998) was > 100 µM (inactive) and the GI50 (HCT-15) was 41.5 µM.

`COc1cccc(C2c3cc4c(cc3OC(Nc3ccccc3)C2C)OCO4)c1O` (stereo not given) was tested, and the GI50 (OVCAR-3) was 9.18 µM (inactive), the GI50 (UO-31) was 7.06 µM (inactive) and the GI50 (ACHN) was 10.9 µM (inactive). The GI50 (NCI-H522) was 4.4 µM (inactive), the GI50 (HT-29) was 5.74 µM (inactive) and the GI50 (OVCAR-4) was 36.3 µM (inactive). For the same compound, the GI50 (OVCAR-8) was 12.9 µM (inactive), the GI50 (SNB-19) was 15.2 µM (inactive) and the GI50 (SW-620) was 4.88 µM (inactive). The GI50 (786-0) was 9.08 µM (inactive), the GI50 (RPMI-8226) was 6.43 µM (inactive) and the GI50 (NCI-H226) was 12 µM (inactive). The GI50 (SK-OV-3) was 10.3 µM (inactive), the GI50 (HL-60) was 9.93 µM (inactive) and the GI50 (SN12C) was 8.83 µM (inactive). For the same compound, the GI50 (CAKI-1) was 13.5 µM (inactive), the GI50 (CCRF-CEM) was 2.58 µM (inactive) and the GI50 (SK-MEL-2) was 13.9 µM (inactive). The GI50 (HCC 2998) was 11.7 µM (inactive) and the GI50 (HCT-15) was 5.62 µM.

With `Cc1cn(C2CC(SCCO)C(CO)O2)c(=O)[nH]c1=O` (stereo not given) the GI50 (OVCAR-3) was > 100 µM (inactive), the GI50 (UO-31) was > 100 µM (inactive) and the GI50 (ACHN) was > 100 µM (inactive). For the same compound, the GI50 (NCI-H522) was > 100 µM (inactive), the GI50 (HT-29) was > 100 µM (inactive) and the GI50 (OVCAR-4) was > 100 µM (inactive). The GI50 (OVCAR-8) was > 100 µM (inactive), the GI50 (SNB-19) was > 100 µM (inactive) and the GI50 (SW-620) was > 100 µM (inactive). For the same compound, the GI50 (786-0) was > 100 µM (inactive), the GI50 (RPMI-8226) was > 100 µM (inactive) and the GI50 (NCI-H226) was > 100 µM (inactive). The GI50 (SK-OV-3) was > 100 µM (inactive), the GI50 (HL-60) was > 100 µM (inactive) and the GI50 (SN12C) was > 100 µM (inactive). For the same compound, the GI50 (CAKI-1) was > 100 µM (inactive), the GI50 (CCRF-CEM) was > 100 µM (inactive) and the GI50 (SK-MEL-2) was > 100 µM (inactive). The GI50 (HCC 2998) was > 100 µM (inactive) and the GI50 (HCT-15) was > 100 µM.
